Publication PMC5871694, “S-Adenosyl-L-Homocysteine Hydrolase Inhibition by a Synthetic Nicotinamide Cofactor Biomimetic” (Frontiers in Microbiology, 2018)
Values joined by “and” are separate entries in the source; they are usually repeats but may differ in a detail not shown here. Equal entries are not always repeated. Where two headings read alike, the source gives them in different places.

Assays:
[1] = biological target: SAHase from Trypanosoma cruzi; design: method as in Li Q.-S. et al., 2007; details: ref Li Q.-S. et al., 2007; cited from earlier work
SAHase from humans = biological target: SAHase from humans; design: method as in Li Q.-S. et al., 2007; details: human SAHase; ref Li Q.-S. et al., 2007; cited from earlier work
[2] = biological target: T1, Bradyrhizobium elkanii SAHase (BeSAHase) (Bradyrhizobium elkanii, UniProt A0A087WNH6); experiment: Isothermal titration calorimetry (ITC); format: binding; details: for KD: apo-BeSAHase titrated with cofactor, 25°C, pH 7; for binding to apo-BeSAHase: titration of apo-BeSAHase; for binding to holo-BeSAHase: titration of holo-BeSAHase
T1 construct: His-tag (N); made in house; host or cells: E. coli
T1 sequence (A0A087WNH6 1-473): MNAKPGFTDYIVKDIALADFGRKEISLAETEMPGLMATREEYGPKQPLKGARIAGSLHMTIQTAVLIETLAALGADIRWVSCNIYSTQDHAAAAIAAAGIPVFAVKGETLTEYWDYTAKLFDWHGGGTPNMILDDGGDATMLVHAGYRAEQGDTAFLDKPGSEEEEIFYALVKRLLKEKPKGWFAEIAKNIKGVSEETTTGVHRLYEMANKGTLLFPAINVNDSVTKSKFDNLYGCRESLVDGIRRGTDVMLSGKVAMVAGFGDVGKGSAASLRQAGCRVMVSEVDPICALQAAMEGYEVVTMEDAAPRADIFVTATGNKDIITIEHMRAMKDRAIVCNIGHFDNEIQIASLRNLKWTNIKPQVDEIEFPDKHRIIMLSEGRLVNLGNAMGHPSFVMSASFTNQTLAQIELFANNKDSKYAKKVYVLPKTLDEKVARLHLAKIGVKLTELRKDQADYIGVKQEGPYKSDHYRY
Procedure: Interaction analyses by ITC were performed with an Affinity ITC microcalorimeter (Low Volume, 24 K Gold Cell; TA Instruments). Prior to measurements, protein was dialyzed into 20 mM MOPS buffer containing 150 mM NaCl. The buffer was adjusted to pH 7 at room temperature, but dialysis was carried out at 4°C. To ensure equal buffer conditions, ligands were dissolved and diluted in the same buffer that was used for the last step of protein dialysis. Measurements were carried out at a constant cell temperature of 25°C. The cell was equilibrated with 40–90 μM SAHase for at least 10 min before the first injection of the respective ligand. The volume of the injections was varied between 2 and 4 μL, depending on the experiment and ligand concentration. The spacing between injections was adjusted according to the time required to reach the binding equilibrium (usually 240–500 s). Ligand titration was continued until peak sizes remained constant, representing only the enthalpy of dilution. The latter was subtracted from the raw data using a mock titration of the ligand into buffer only. Data evaluation was performed with the NanoAnalyze software (v. 3.7.5; TA Instruments), using the model “independent set of multiple binding sites” ([Freire et al., 1990]) for KD determination.

bovine liver SAHase = biological target: bovine liver SAHase; design: method as in Porter and Boyd, 1992; details: cited from earlier work
[3] = biological target: T1, Bradyrhizobium elkanii SAHase (BeSAHase); experiment: HPLC-based endpoint activity assay in the direction of SAH synthesis; format: biochemical
Procedure: HPLC-based activity measurements in the direction of SAH synthesis were carried out as described by [Kailing et al. (2017)], with constant substrate concentrations (0.5 mM) of both Ado and Hcy. For the cofactor screenings, the assay was supplemented with 2 mM of the respective compound and reactions were initiated with ∼10 μg (700 nM final concentrations in assay) of apo- or holo-BeSAHase, respectively. One set of reactions was terminated after 30 min, the other after 17 h. […] Reactions were terminated after 30 min. Conversions were derived from HPLC chromatograms as described before ([Kailing et al., 2017]), plotted against the concentration of inhibitor and a linear regression analysis was performed with the GraphPad Prism software (v. 6.01). The IC50 was calculated as the concentration leading to half-maximum effect of the inhibitor.

[4] = biological target: T1, Bradyrhizobium elkanii SAHase (BeSAHase); experiment: Photometric DTNB kinetic assay in the hydrolytic direction (SAH hydrolysis); format: biochemical
Procedure: Reactions were performed at room temperature in 100 μL sodium phosphate buffer (100 mM, pH 8), supplemented with 1 mM EDTA, 0.2 mM 5,5′-dithiobis(2-nitrobenzoic acid) (DTNB) and SAHase. In experiments with defined NAD^+ concentrations, apo-SAHase was pre-incubated with the respective amount of cofactor for at least 2 h, to ensure that the binding equilibrium was reached before initiation of the reaction. Enzyme concentrations were adjusted according to specific activity, to avoid exceeding maximum reaction rates (vmax) of 0.01 mM⋅min^-1. Higher reaction rates would lead to product inhibition, caused by the accumulation of Ado, in the time frame of the measurement. Reactions were initiated by addition of the substrate (SAH). The reaction rate was monitored photometrically, using DTNB to detect the formation of Hcy. Experiments were carried out in a double-beam UV-vis spectrophotometer (Specord 205, Analytik Jena). Initial reaction rates (v0) were calculated from the first 20–25 s of the reaction, based on the increase of extinction (ΔE) at 412 nm over time (Δt) in a quartz cuvette with a path length (d) of 1 cm, assuming an extinction coefficient (ε) of 14,150 L cm^-1 mol^-1 for the product: v0 = ΔE ⋅ ε412 nm–1 ⋅ d^-1 ⋅ Δt^-1. The assay was validated by comparison to data obtained with the coupled photometric assay described by [Kailing et al. (2017)]. The latter assay was not used in this study, since NCB 10 contributes to oxidation of the monitoring compound NADH in a non-enzymatic way, thereby compromising the reliability of the measurement.
Initial reaction rates were plotted against the concentration of inhibitor and a linear regression analysis was performed as described above for the HPLC assay. The inhibitory constant (Ki) was calculated from the following relation, where KM, [E] and [S] denote the Michaelis–Menten constant, concentration of enzyme and of substrate, respectively: IC50 = Ki ⋅ KM–1 ) + [E]0/2 ([Cha, 1975]). Characterization of the inhibition model was done by measuring Michaelis–Menten kinetics in the presence of varying inhibitor concentrations. KM and maximum reaction rate (vmax) values were obtained by non-linear Michaelis–Menten fitting using GraphPad Prism.
Kinetic-based binding studies to determine the half-maximum effective concentration (EC50) for NAD^+ were carried out with 330 nM SAHase, after pre-incubation with the respective amount of NAD^+, and constant substrate concentrations (0.2 mM SAH). Initial reaction rates were plotted against the NAD^+ concentration and a hyperbolic fit was calculated using GraphPad Prism. The EC50 was calculated as the NAD^+ concentration leading to half-maximum activation of BeSAHase.

[5] = physiological pH, cited from earlier work
[6] = ref Porter and Boyd, 1992, read-out: KD (estimated)
[7] = calculated from IC50, KM, enzyme and substrate concentration

SMILES: NC(=O)C1=CN([C@@H]2O[C@H](COP(=O)(O)OP(=O)(O)OC[C@H]3O[C@@H](n4cnc5c(N)ncnc54)[C@H](O)[C@@H]3O)[C@@H](O)[C@H]2O)C=CC1 [NADH]
- KD range [1]: nanomolar
- KD range (SAHase from humans): nanomolar
- KD [2]: low micromolar range

SMILES: C=C1OC(n2cnc3c(N)ncnc32)C(O)C1=O (stereo not shown) [4′,5′-dehydro-3′-ketoadenosine]
- Kd (bovine liver SAHase; [6]): 0.0003 µM

SMILES: NC(=O)c1ccc[n+]([C@@H]2O[C@H](COP(=O)([O-])OP(=O)(O)OC[C@H]3O[C@@H](n4cnc5c(N)ncnc54)[C@H](O)[C@@H]3O)[C@@H](O)[C@H]2O)c1 [NAD^+, nicotinamide adenine dinucleotide, reference compound]
- reconstitution of activity of apo-SAHase ([3]; apo-BeSAHase, 2 mM compound, 0.5 mM Ado and Hcy, 30 min and 17 h): recovered highly active enzyme
- time to full substrate conversion after re-supplementation of apo-SAHase ([3]; apo-BeSAHase, HPLC-based assay conditions): less than 30 min
- EC50 ([4]; 330 nM apo-SAHase pre-incubated with NAD+, 0.2 mM SAH, hyperbolic fit, read-out: EC50 (half-maximum activation of BeSAHase)): ~10 µM and 11.2 µM
- KD [2]: low micromolar range
- redox potential ([5]; NAD+/NADH, ref Burton and Wilson, 1953): -320 mV

SMILES: Nc1ncnc2c1ncn2[C@@H]1O[C@H](CO)[C@@H](O)[C@H]1O [Ado, adenosine]
- Kd (bovine liver SAHase; ref Porter and Boyd, 1992, read-out: KD): 9 µM

SMILES: N#Cc1ccc[n+](Cc2ccccc2)c1 [NCB 10]
- IC50 ([3]; 100 nM NAD+-saturated SAHase, 0.5 mM Ado and Hcy, 30 min, linear regression): ~1400 µM and 1440 µM
- inhibition at 2000 µM ([3]; holo-SAHase in the presence of excess NAD+, 2 mM compound, read-out: inhibition of substrate conversion): ~75%
- IC50 ([4]; 285 nM NAD+-saturated BeSAHase, 0.2 mM SAH, linear regression): ~14000 µM and 14400 µM
- inhibition mechanism ([4]; Michaelis-Menten kinetics with varying inhibitor concentrations): non-competitive
- Ki [4, 7]: ~2000 µM
- Ki,hydrolysis [4, 7]: millimolar range
- binding to apo-BeSAHase [2]: small binding enthalpies
- binding to apo-BeSAHase ([2]; listed as 10): Neither titration of holo-, nor of apo-SAHase gave any hint of a binding event
- binding to holo-BeSAHase [2]: small binding enthalpies
- binding to holo-BeSAHase ([2]; listed as 10): Neither titration of holo-, nor of apo-SAHase gave any hint of a binding event
- redox potential ([5]; 10ox/10red, ref Ostovic et al., 1985): -220 mV

SMILES: Nc1ncnc2c1ncn2C1OC(CO)C(=O)C1O (stereo not shown) [3′-ketoadenosine]
- Kd (bovine liver SAHase; [6]): 0.0006 µM
